What all share (format): cell-based
Test [1] has as its system Huh7 cells. Description: LD content in Huh7 cells pre-treated with insulin, Oil-Red-O staining, absorbance OD 540 nm. The conditions noted are these: procedure of Example 3, read-out: LD content inhibition (EC50). The procedure, abridged: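 Huh7 cells, mock-treated or pre-treated with 1 mM insulin, were then exposed to compound at the indicated amounts. Lipid droplets stained with Oil Red O and quantified by absorbance at OD 540 nm.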

Test [2] deals with SREBP-2. The test is described as follows: SREBP-2 expression in cultured primary human hepatocytes. The conditions noted are these: procedure of Example 6, read-out: SREBP-2 mRNA inhibition (EC50). The gist of the method:
(§1)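 Primary human hepatocytes in culture exposed to a range of HPN-01 derivative concentrations; SREBP-1 and SREBP-2 mRNA expression then measured to assess inhibition.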

In test [3] the test system is SREBP-1. Description: SREBP-1 expression in cultured primary human hepatocytes. The conditions noted are these: procedure of Example 6, read-out: SREBP-1 mRNA inhibition (EC50). The gist of the method:
as §1

[4] abbreviates: Homo sapiens, Huh-7, Huh7 cells.

Like-named read-outs stand apart in the source and are kept apart here.

For orientation: EC50 means the concentration needed to bring the measured effect to its halfway point. Regarding `NC(=O)c1cc(C2CCC(Br)CC2)cc(-c2ccc(S(N)(=O)=O)cc2)c1N` (stereo not drawn) [HPN-01322, 2-amino-5-(4-bromocyclohexyl)-4′-sulfamoyl-[1,1′-biphenyl]-3-carboxamide], the EC50 in test [1] (setting [4]) was determined as 0.83 µM; in test [2] (Homo sapiens, Hepatocyte) it was 2.55 µM; in test [3] (Homo sapiens, Hepatocyte) it was 1.62 µM.

Regarding `NCCC(=O)Oc1c(C(N)=O)cc(-c2ccc(Br)cc2)cc1-c1ccc(NC(N)=O)cc1` [HPN-01526, 4-bromo-5′-carbamoyl-4″-ureido-[1,1′:3′,1″-terphenyl]-4′-yl 3-aminopropanoate], the EC50 in test [1] (setting [4]) stood at 1.15 µM; in test [2] (Homo sapiens, Hepatocyte), 3.83 µM; in test [3] (Homo sapiens, Hepatocyte), 1.63 µM.

Regarding `CC(C)NC(=O)Nc1ccc(-c2cc(-c3ccc(Cl)cc3)cc(C(N)=O)c2N)cc1` [HPN-01430, 4′-amino-4-chloro-4″-(3-isopropylureido)-[1,1′:3′,1″-terphenyl]-5′-carboxamide], the EC50 worked out at 5.36 µM in test [1] (setting [4]); 4.37 µM in test [2] (Homo sapiens, Hepatocyte); 1.88 µM in test [3] (Homo sapiens, Hepatocyte).

As to `NC(=O)c1cc(-c2ccc(Cl)cn2)cc(-c2ccc(S(N)(=O)=O)cc2)c1N` [HPN-01308, 2-amino-5-(5-chloropyridin-2-yl)-4′-sulfamoyl-[1,1′-biphenyl]-3-carboxamide], the EC50 in test [1] (setting [4]) is 1.9 µM; in test [2] (Homo sapiens, Hepatocyte), 11.2 µM; in test [3] (Homo sapiens, Hepatocyte), 6.36 µM.

For `NC(=O)c1cc(-c2ccc(Cl)cc2)cc(OCCc2ccc(S(N)(=O)=O)cc2)c1N` [HPN-01423, 4-amino-4′-chloro-5-(4-sulfamoylphenethoxy)-[1,1′-biphenyl]-3-carboxamide], the EC50 worked out at 0.81 µM in test [1] (setting [4]); 2.37 µM in test [2] (Homo sapiens, Hepatocyte); 1.36 µM in test [3] (Homo sapiens, Hepatocyte).

On to `Nc1c(C(=O)NCCO)cc(-c2ccc(Br)cc2)cc1-c1ccc(S(N)(=O)=O)cc1` [HPN-01608, 4′-amino-4-bromo-N-(2-hydroxyethyl)-4″-sulfamoyl-[1,1′:3′,1″-terphenyl]-5′-carboxamide], for which the EC50 in test [1] (setting [4]) worked out at 1.2 µM; in test [2] (Homo sapiens, Hepatocyte), 4.31 µM; in test [3] (Homo sapiens, Hepatocyte), 2.39 µM.

For the molecule `CC(=O)Oc1cccc(/C=C/c2cc(C(N)=O)c(N)c(-c3ccc(S(N)(=O)=O)cc3)c2)c1` [HPN-01110, (E)-3-(2-(6-amino-5-carbamoyl-4′-sulfamoyl-[1,1′-biphenyl]-3-yl)vinyl)phenyl acetate], the EC50 was determined as 0.81 µM in test [1] (setting [4]); 3.6 µM in test [2] (Homo sapiens, Hepatocyte); 2.26 µM in test [3] (Homo sapiens, Hepatocyte).

With `NC(=O)c1cc(/C=C/c2ccc(Cl)cc2)cc(-c2ccc(S(N)(=O)=O)cc2)c1N` [HPN-01107, (E)-2-amino-5-(4-chlorostyryl)-4′-sulfamoyl-[1,1′-biphenyl]-3-carboxamide], the EC50 stood at 1.17 µM in test [1] (setting [4]); 7.37 µM in test [2] (Homo sapiens, Hepatocyte); 5.66 µM in test [3] (Homo sapiens, Hepatocyte).

As for `NC(=O)c1cc(Oc2cccc(Cl)c2)cc(-c2ccc(S(N)(=O)=O)cc2)c1N` [HPN-01316, 2-amino-5-(3-chlorophenoxy)-4′-sulfamoyl-[1,1′-biphenyl]-3-carboxamide], the EC50 worked out at 5.92 µM in test [1] (setting [4]); 11.2 µM in test [2] (Homo sapiens, Hepatocyte); 8.02 µM in test [3] (Homo sapiens, Hepatocyte).

On to `NC(=O)Nc1ccc(-c2cc(-c3ccc(Cl)cc3)cc(C(N)=O)c2NC(=O)CO)cc1` [HPN-01506, 4-chloro-4′-(2-hydroxyacetamido)-4″-ureido-[1,1′:3′,1″-terphenyl]-5′-carboxamide], for which the half-maximal effective concentration (EC50) stood at 6.48 µM in test [1] (setting [4]); 17.1 µM in test [2] (Homo sapiens, Hepatocyte); 7.31 µM in test [3] (Homo sapiens, Hepatocyte).

Take `COc1ccccc1C(=O)OCC#Cc1cc(C(N)=O)c(N)c(-c2ccc(S(N)(=O)=O)cc2)c1` [HPN-01217, 3-(6-amino-5-carbamoyl-4′-sulfamoyl-[1,1′-biphenyl]-3-yl)prop-2-yn-1-yl 2-methoxybenzoate]: the EC50 in test [1] (setting [4]) worked out at 0.18 µM; in test [2] (Homo sapiens, Hepatocyte), 2.07 µM; in test [3] (Homo sapiens, Hepatocyte), 1.03 µM.

Regarding `NC(=O)c1cc(-c2ccc(Br)cc2)cc(-c2ccc(S(N)(=O)=O)cc2)c1NC(=O)CCO` [HPN-01513, 4-bromo-4′-(3-hydroxypropanamido)-4″-sulfamoyl-[1, 1′:3′,1″-terphenyl]-5′-carboxamide], the EC50 stood at 0.68 µM in test [1] (setting [4]); 2.88 µM in test [2] (Homo sapiens, Hepatocyte); 1.63 µM in test [3] (Homo sapiens, Hepatocyte).

Turning to `NC(=O)c1cc(/C=C/c2cccc(F)c2)cc(-c2ccc(S(N)(=O)=O)cc2)c1N` [HPN-01104, (E)-2-amino-5-(3-fluorostyryl)-4′-sulfamoyl-[1,1′-biphenyl]-3-carboxamide], the EC50 is 0.67 µM in test [1] (setting [4]); 3.26 µM in test [2] (Homo sapiens, Hepatocyte); 2.08 µM in test [3] (Homo sapiens, Hepatocyte).

For the molecule `COc1cccc(NC(=O)c2cc(-c3ccc(Br)cc3)cc(-c3ccc(S(N)(=O)=O)cc3)c2N)c1` [HPN-01620, 4′-amino-4-bromo-N-(3-methoxyphenyl)-4″-sulfamoyl-[1,1′:3′,1″-terphenyl]-5′-carboxamide], the EC50 in test [1] (setting [4]) came out at 5.36 µM; in test [2] (Homo sapiens, Hepatocyte), 9.22 µM; in test [3] (Homo sapiens, Hepatocyte), 5.76 µM.

As for `CC(=O)OCC#Cc1cc(C(N)=O)c(N)c(-c2ccc(S(N)(=O)=O)cc2)c1` [HPN-01223, 3-(6-amino-5-carbamoyl-4′-sulfamoyl-[1,1′-biphenyl]-3-yl)prop-2-yn-1-yl acetate], the EC50 in test [1] (setting [4]) was determined as 1.03 µM; in test [2] (Homo sapiens, Hepatocyte) it was 4.2 µM; in test [3] (Homo sapiens, Hepatocyte) it was 2.64 µM.

In the case of `Nc1c(C(=O)Nc2ccc(O)c(O)c2)cc(-c2ccc(Cl)cc2)cc1-c1ccc(S(N)(=O)=O)cc1` [HPN-01617, 4′-amino-4-chloro-N-(3,4-dihydroxyphenyl)-4″-sulfamoyl-[1,1′:3′,1″-terphenyl]-5′-carboxamide], the EC50 in test [1] (setting [4]) worked out at 0.32 µM; in test [2] (Homo sapiens, Hepatocyte), 3.68 µM; in test [3] (Homo sapiens, Hepatocyte), 1.88 µM.

Regarding “4′-acetamido-4-chloro-4″-ureido-[1,1′:3′,1″-terphenyl]-5′-carboxamide [HPN-01505]”, the EC50 in test [1] (Huh7 cells) was 0.59 µM; in test [2], 2.41 µM; in test [3] it was 1.36 µM.

Consider `NC(=O)c1cc(-c2ccc(Cl)cc2)cc(Sc2cccc(S(N)(=O)=O)c2)c1N` [HPN-01414, 4-amino-4′-chloro-5-((3-sulfamoylphenyl)thio)-[1,1′-biphenyl]-3-carboxamide], for which the EC50 in test [1] (setting [4]) came to 1.57 µM; in test [2] (Homo sapiens, Hepatocyte), 9.86 µM; in test [3] (Homo sapiens, Hepatocyte), 3.94 µM.

Turning to `NC(=O)c1cc(-c2ccc(Cl)cc2)cc(-c2ccc(NC(=O)CO)cc2)c1N` [HPN-01419, 4′-amino-4-chloro-4″-(2-hydroxyacetamido)-[1,1′:3′,1″-terphenyl]-5′-carboxamide], the EC50 was found to be 0.5 µM in test [1] (setting [4]); 3.53 µM in test [2] (Homo sapiens, Hepatocyte); 1.82 µM in test [3] (Homo sapiens, Hepatocyte).

For the molecule `NC(=O)c1cc(-c2ccc(Br)cc2)cc(Nc2ccc(S(N)(=O)=O)cc2)c1N` [HPN-01404, 4-amino-4′-bromo-5-((4-sulfamoylphenyl)amino)-[1,1′-biphenyl]-3-carboxamide], the EC50 in test [1] (setting [4]) turned out to be 0.64 µM; in test [2] (Homo sapiens, Hepatocyte) it was 3.39 µM; in test [3] (Homo sapiens, Hepatocyte), 1.97 µM.

On to `Cc1cccc(NC(=O)/C=C/c2cc(C(N)=O)c(N)c(-c3ccc(S(N)(=O)=O)cc3)c2)c1` [HPN-01127, (E)-2-amino-5-(3-oxo-3-(m-tolylamino)prop-1-en-1-yl)-4═-sulfamoyl-[1,1′-biphenyl]-3-carboxamide], for which the EC50 stood at 0.33 µM in test [1] (Huh7 cells), 3.37 µM in test [2] and 1.17 µM in test [3].

Regarding `CCOc1ccc(NC(=O)/C=C/c2cc(C(N)=O)c(N)c(-c3ccc(S(N)(=O)=O)cc3)c2)cc1` [HPN-01129, (E)-2-amino-5-(3-((4-ethoxyphenyl)amino)-3-oxoprop-1-en-1-yl)-4′-sulfamoyl-[1,1′-biphenyl]-3-carboxamide], the EC50 in test [1] (setting [4]) stood at 0.29 µM; in test [2] (Homo sapiens, Hepatocyte), 3.1 µM; in test [3] (Homo sapiens, Hepatocyte), 1.69 µM.

Regarding `NC(=O)c1cc(/C=C/C(=O)OCc2ccccc2)cc(-c2ccc(S(N)(=O)=O)cc2)c1N` [HPN-01120, benzyl (E)-3-(6-amino-5-carbamoyl-4′-sulfamoyl-[1,1′-biphenyl]-3-yl)acrylate], the EC50 in test [1] (setting [4]) came out at 0.68 µM; in test [2] (Homo sapiens, Hepatocyte) it was 5.1 µM; in test [3] (Homo sapiens, Hepatocyte), 6.44 µM.

Regarding `NC(=O)c1cc(-c2ccc(Br)cc2)cc(-c2ccc(OP(=O)(O)O)cc2)c1N` [HPN-01416, 6′-amino-4″-bromo-5′-carbamoyl-[1,1′:3′,1″-terphenyl]-4-yl dihydrogen phosphate], the EC50 in test [1] (setting [4]) came out at 1.51 µM; in test [2] (Hepatocyte), 4.01 µM; in test [3] (Hepatocyte), 3.02 µM.

As for `NC(=O)c1cc(-c2ccc(Cl)cc2)cc(-c2ccc(NC(=O)Nc3cccnc3)cc2)c1N` [HPN-01429, 4′-amino-4-chloro-4″-(3-(pyridin-3-yl)ureido)-[1,1′:3′,1″-terphenyl]-5′-carboxamide], the EC50 in test [1] (setting [4]) came to 0.14 µM; in test [2] (Homo sapiens, Hepatocyte), 3.98 µM; in test [3] (Homo sapiens, Hepatocyte), 6.69 µM.

Consider `Nc1c(C(=O)Nc2cccc(F)c2)cc(-c2ccc(Cl)cc2)cc1-c1ccc(S(N)(=O)=O)cc1` [HPN-01613, 4′-amino-4-chloro-N-(3-fluorophenyl)-4″-sulfamoyl-[1,1′:3′,1″-terphenyl]-5′-carboxamide], for which the EC50 was determined as 1.37 µM in test [1] (setting [4]); 2.2 µM in test [2] (Homo sapiens, Hepatocyte); 1.55 µM in test [3] (Homo sapiens, Hepatocyte).

Regarding `NC(=O)c1cc(C#Cc2cccc(Br)c2)cc(-c2ccc(S(N)(=O)=O)cc2)c1N` [HPN-01208, 2-amino-5-((3-bromophenyl)ethynyl)-4′-sulfamoyl-[1,1′-biphenyl]-3-carboxamide], the EC50 in test [1] (setting [4]) stood at 1.69 µM; in test [2] (Homo sapiens, Hepatocyte), 5.77 µM; in test [3] (Homo sapiens, Hepatocyte) it was 3.25 µM.

(Values after patent publication US11000491B2, “Amino-aryl-benzamide compounds and methods of use thereof” (HEPANOVA, INC., priority 2017, dated 2021).)
